# Marks after values point to notes of the source that are not given here.
# Key:
# [1] = Food-effect trial: cumulative excretion rate from urine (0-48 h); assay type: in vivo, human; conditions: single oral 200 mg CK
# Protocol: The food-effect trial was an open-label, randomized, two-period, two-treatment crossover trial, carried out from 15 January to 31 March 2015. Subjects (n = 24) were admitted to the clinical facility (Center of Clinical Pharmacology, the Third Xiangya Hospital, Central South University, Changsha, China) and randomized to receive a single 200 mg oral dose of Ginsenoside CK Tablets (4 × 50 mg tablets) either after a 10 h-fasting period or within 30 min after beginning the consumption of a recommended high-fat, high calorie breakfast (150 calories of protein, 250 calories of carbohydrates, 500 to 600 calories of fat; total calories approximately 800–1,000). Tablets were administered with 250 mL of water, to each subject, in each treatment period. Drinking was prohibited for 2 h before and after medication. Apart from this, the amount and time of drinking were not strictly controlled. Subjects had unified, standard meals 4 and 10 h after drug administration. The alternate treatment was conducted after a 14-day washout period. Urine samples were collected 0–24 and 24–48 h after the administration and the volumes were measured immediately after collection. We preserved 8 mL in centrifuge tube for PK assessment, which were stored at −70°C before analysis. Descriptive statistics of PK parameters were calculated using established non-compartmental methods, utilizing the WinNonLin version 6.1 software (Pharsight Corporation, USA). The PK parameters determined for each participant included apparent terminal half-life (t1/2), maximum plasma concentration (Cmax), time to Cmax (tmax), area under the plasma concentration-time curve from the time of administration up to the last time point with a measurable concentration post-dose (AUClast), AUC extrapolated to infinity (AUCinf), apparent volume of distribution (V/F), apparent plasma clearance (CL/F) after extravascular administration, mean residence time (MRTlast and MRTinf), and the cumulative excretion rate from urine. The t1/2 was estimated as (ln2)/K, where K represented the slope of the terminal phase of plasma concentration-time profile and was assessed with a weighting factor of 1, using least squares (log-linear regression of at least three data points). The Cmax and tmax were obtained from experimental observations. The values of AUC were calculated using conventional trapezoidal and log-trapezoidal methods and the extrapolated area (Rowland and Tozer, [1995]). CL/F and V/F were calculated as dose/AUCinf and (CL/F)/K, respectively. MRT was calculated as MRT = AUMC/AUC, where AUMC is the area under the first moment curve. The cumulative excretion rate was calculated as the amount of unchanged drug over a time interval in the urine divided by dose, and was expressed as a percentage. The processing of urine samples was similar to that of plasma samples. […] For QC samples containing 2.00, 50.10, or 801.60 ng·mL^−1 CK were prepared using homogenic human urine with the mean bias ranged from −5.54 to 3.56%, while the CVs ranged from 1.38 to 4.89%.
# [2] = Food-effect trial: safety assessments (adverse events, vital signs, ECG, laboratory tests); assay type: in vivo, human
# Protocol: All available information on the study participants was included in the summaries of safety assessments, and must be recorded on the case-report form by investigators. The safety assessment took place throughout the project, and it included continuous observation of adverse events (AEs), monitoring of vital signs, 12-lead ECGs, hematological and biochemical analyses, and urinalysis. Specifically, the monitoring began the night before drug administration (at least 10 h), when subjects were admitted to the clinical facility, and continued for 96 h after dosing. ECGs were recorded prior to the administration and 1, 4, 12, 24, 48, 72, and 96 h after the administration of CK, as well as during physical examinations before and after the trial. Apart from investigators' review, data were also obtained from subjects by recounting or narrating themselves. Subsequently, AEs were classified by intensity into mild, moderate, and severe. A second classification of AEs, based on the relationship of AEs to the test drug, was performed, dividing them into positive, probable, possible, remote, or unrelated.
# [3] = Early clinical trial: sex differences of ginsenoside compound K pharmacokinetics (Supplementary Table 1); conditions: human, in vivo; for Cmax: n = 12
# Protocol: Therefore, a secondary purpose of this trial is to investigate whether there are any differences in the pharmacokinetics of CK between males and females, and whether the findings are consistent with what was previously observed. This report described an open-label, single-center trial, designed as a two-period crossover study, performed on healthy Chinese subjects (n = 24) randomized to either the fasting overnight (FO) or the high-fat (HF) meal group, before receiving a single 200 mg dose of Ginsenoside CK Tablets. Consequently, this study also provides evidence for dosing regimens, for late-stage clinical studies and clinical applications. Supplementary Table 1. Sex differences of ginsenoside compound K in human (n = 12).
# [4] = design: method as in Chen et al., [2014]; conditions: rats; ref Chen et al., [2014]; cited from earlier work
# [5] = Abnormal urine routine, possible related
# [6] = Elevated creatine kinase, possible related
# [7] = Elevated direct bilirubin, probable related
# [8] = Elevated triglycerides, possible related
# [9] = Upper respiratory tract infection, possible related
smiles,measurement,setting,value
"CC(C)=CCCC(C)(OC1OC(CO)C(O)C(O)C1O)C1CCC2(C)C1C(O)CC1C3(C)CCC(O)C(C)(C)C3CCC12C [CK, 20-O-beta-D-glucopyranosyl-20(S)-protopanaxadiol]",Cumulative excretion rate,"[1]; FO, female",0.083 ± 0.049%
same,Cumulative excretion rate,"[1]; FO, male",0.037 ± 0.029%
same,Cumulative excretion rate,"[1]; HF, all subjects",0.020 ± 0.015%
same,Cumulative excretion rate,"[1]; HF, female",0.019 ± 0.070%
same,Cumulative excretion rate,"[1]; HF, male",0.022 ± 0.020%
same,Cumulative excretion rate,"[1]; unchanged drug / dose, FO, all subjects",0.060 ± 0.046%
same,Adverse events: Number of cases,[2]; [5],1^c
same,Adverse events: Percentage,[2]; [5],4.2%
same,Adverse events: Number of cases,"[2]; Bellyache, positive related",3^a
same,Adverse events: Percentage,"[2]; Bellyache, positive related",12.5%
same,Adverse events: Number of cases,"[2]; Diarrhea, probable related",1^b
same,Adverse events: Percentage,"[2]; Diarrhea, probable related",4.2%
same,Adverse events: Number of cases,[2]; [6],3^c
same,Adverse events: Percentage,[2]; [6],12.5%
same,Adverse events: Number of cases,[2]; [7],1^b
same,Adverse events: Percentage,[2]; [7],4.2%
same,Adverse events: Number of cases,[2]; [8],3^c
same,Adverse events: Percentage,[2]; [8],12.5%
same,"Incidence of AEs classified as positive, probable and possible in relation to the test drug",[2]; FO regimen,55.6%
same,"Incidence of AEs classified as positive, probable and possible in relation to the test drug",[2]; HF regimen,44.4%
same,Adverse events: Number of cases,"[2]; Hematuria, possible related",1^c
same,Adverse events: Percentage,"[2]; Hematuria, possible related",4.2%
same,Adverse events: Number of cases,"[2]; Nausea, probable related",1^b
same,Adverse events: Percentage,"[2]; Nausea, probable related",4.2%
same,Adverse events: Number of cases,[2]; [9],1^c
same,Adverse events: Percentage,[2]; [9],4.2%
same,Adverse events: Percentage,"[2]; Watery stool, positive related",16.7%
same,Adverse events: Number of cases,"[2]; Watery stool, positive related to ginsenoside compound K, 24 subjects",4^a
same,Intensity of AEs,[2]; all AEs,mild
same,Instances of AEs recorded,[2]; both treatments,19
same,Number of subjects with AEs,[2]; of 24 subjects,11
same,Subjects with AEs (percentage),"[2]; of 24 subjects, both treatments",45.8%
same,"Abnormalities in physical examination, vital signs, ECGs, or standard clinical laboratory test results",[2]; single 200 mg dose,not associated with any clinically significant abnormalities
same,AUC(0-inf),[3]; female,4670 ± 2140 ng·h/mL
same,AUC(0-t),[3]; female,4490 ± 2030 ng·h/mL
same,Tmax,[3]; female,2.58 ± 0.67 h
same,half-life,[3]; female,5.66 ± 2.04 h
same,Cmax,[3]; Female,873 ± 427 ng/mL
same,Cmax,[3]; Male,601 ± 183 ng/mL
same,AUC(0-inf),[3]; male,3680 ± 1360 ng·h/mL
same,AUC(0-t),[3]; male,3600 ± 1320 ng·h/mL
same,Tmax,[3]; male,3.19 ± 1.25 h
same,half-life,[3]; male,4.15 ± 1.9 h
same,Dose exhibiting initial anti-inflammatory activity,[4],10 mg/kg
